Structures can show the parent of a compound that is named as a salt.
Tested on: male Sprague-Dawley rats
Assay: cavernous nerve crush injury rat model: erectile function (ICP, ICP/MAP) on cavernosal nerve stimulation
Type: in vivo
Experimental: Experiments were conducted in male Sprague-Dawley rats according to previously published methods for forceps-induced nerve crush injury and erectile function measurements (Rehman, J., et al., Urology 51:640-644, 1998; Sezen, S. F., et al., Int J. Impot. Res. 14:506-12, 2002). Subjects were anesthetized with Phenobarbital. The prostate of the subjects was exposed and the cavernosal nerve was clipped on either side with a forceps to induce mechanical injury (crush). This rat model mimics the nerve injury that develops during human male prostatectomy, leading to nerve injury and subsequent erectile dysfunction. Subjects were studied 2 weeks after the injury. Two groups of subjects were used, one group treated with vehicle and one group treated with compound 8l methanesulfonate salt. Compound 8l methanesulfonate salt was injected at 30 mg/kg i.v. immediately before the crush injury, and on the following day at the same dose. Thereafter, for 12 days, subjects were treated with 60 mg/kg compound 8l methanesulfonate salt intraperitoneally. At 2 weeks, subjects were re-anesthetized and measured for mean arterial blood pressure (MAP) and intracavernosal pressure (ICP). Cavernosal nerve stimulation was conducted at 5 and 7.5 V using a square pulse stimulator for 30 msec. ICP was determined as the area under curve (mmHg×sec). In addition, IPC/MAP ratios were determined.

Compound: O=c1[nH]c2c(c3ccccc13)Cc1cc(S(=O)(=O)NCCCN3CCOCC3)ccc1-2 [Compound 8l methanesulfonate salt]
- erectile function (rat model that mimics the nerve injury that develops during human male prostatectomy, versus vehicle): improves erectile function
- ICP (intracavernosal pressure, area under curve) (rats 2 weeks after cavernous nerve crush injury, 30 mg/kg i.v. immediately before injury and next day, then 60 mg/kg i.p. for 12 days, cavernosal nerve stimulation at 5 and 7.5 V, mean ± SEM, n = 14-16, *p < 0.05, vehicle 1124 ± 212, normal approx. 4000): 1471 ± 151* mmHg × sec
- ICP/MAP ratio (rats 2 weeks after cavernous nerve crush injury, 30 mg/kg i.v. immediately before injury and next day, then 60 mg/kg i.p. for 12 days, mean ± SEM, n = 14-16, *p < 0.05, vehicle 0.16 ± 0.03, normal approx. 0.8-0.9): 0.23 ± 0.02*

From patent publication US20060019980A1, “Methods for treating or preventing erectile dysfunction or urinary incontinence” (Inotek Pharmaceutical, Corp., priority 2004, published 2006)
